{
  "source": "patent US20010055573A1",
  "about": "“Delivery systems for active ingredients including sunscreen actives and methods of making same” (Shamrock Technologies, priority 1999, published 2001)",
  "assay": "Solubility of the sunscreen active in the preferred non-polar solvents",
  "format": "physicochemical",
  "conditions": "ethylferulate by itself, without lubricating wax as cosolvent",
  "from_the_text": "Thus, this embodiment of the present invention solves a significant problem which the prior art has heretofore been unable to overcome without emulsification, namely, the poor solubility of ethylferulate and other polar solid organic sunscreen actives in non-polar solvents, which causes difficulties in formulating sunscreen products in non-emulsified systems.",
  "data": [
    {"smiles": "CCOC(=O)/C=C/c1ccc(O)c(OC)c1", "note": "[ethylferulate, ethyl ester of ferulic acid]", "values": [
      {"measurement": "solubility in the preferred solvents", "value": "not soluble to any significant extent"}
    ]}
  ]
}
